# Values of other authors as cited in patent US20170326180A1, “Demineralized Bone Matrix Material having Allogenic Sphingosine-1-Phosphate” (DePuy Synthes Products, Inc., priority 2016, published 2017).
# Test system: mesenchymal stem cells
# Conditions: solution having 0.1 and 1 uM C1P; reported by Kim
substance,measurement,value
ceramide-1-phosphate [C1P],chemotactic activity for mesenchymal stem cells,chemotactic activity
